Results from patent US20250320206A1, “STAT6 DEGRADERS” (Gilead Sciences, Inc., priority 2024, published 2025).

What was measured:
[1] = test system: Eotaxin-3 release in human whole blood stimulated with IL-4; test: Human Whole Blood Eotaxin-3 Assay (IL-4 stimulated eotaxin-3 release); assay type: cell-based; details: IL-4 stimulation, 48 h, values given for compounds with >80% Emax, geometric mean
Procedure, shortened: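 Eotaxin-3 (CCL26) release measured by MSD kit in plasma supernatant after 48 h IL-4 stimulation ([…]) of human whole blood. Compounds added in triplicate 4-fold dilutions 2 h before stimulation; 0.5% DMSO final, 37° C, 5% CO2.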

STAT6 = biological target: T1, STAT6 (Homo sapiens, UniProt P42226); test: Stat6 Degrader Assay (HiBiT based, HeLa LgBiT clone 4.14); assay type: cell-based; details: HeLa LgBiT clone 4.14 HiBiT-STAT6, 4-24 h incubation; for DC50: values given for compounds with >80% Emax, geometric mean, read-out: STAT6 degradation DC50
T1 construct: These cells express endogenous STAT6; host or cells: HeLa LgBiT clone 4.14
T1 sequence (P42226 1-847): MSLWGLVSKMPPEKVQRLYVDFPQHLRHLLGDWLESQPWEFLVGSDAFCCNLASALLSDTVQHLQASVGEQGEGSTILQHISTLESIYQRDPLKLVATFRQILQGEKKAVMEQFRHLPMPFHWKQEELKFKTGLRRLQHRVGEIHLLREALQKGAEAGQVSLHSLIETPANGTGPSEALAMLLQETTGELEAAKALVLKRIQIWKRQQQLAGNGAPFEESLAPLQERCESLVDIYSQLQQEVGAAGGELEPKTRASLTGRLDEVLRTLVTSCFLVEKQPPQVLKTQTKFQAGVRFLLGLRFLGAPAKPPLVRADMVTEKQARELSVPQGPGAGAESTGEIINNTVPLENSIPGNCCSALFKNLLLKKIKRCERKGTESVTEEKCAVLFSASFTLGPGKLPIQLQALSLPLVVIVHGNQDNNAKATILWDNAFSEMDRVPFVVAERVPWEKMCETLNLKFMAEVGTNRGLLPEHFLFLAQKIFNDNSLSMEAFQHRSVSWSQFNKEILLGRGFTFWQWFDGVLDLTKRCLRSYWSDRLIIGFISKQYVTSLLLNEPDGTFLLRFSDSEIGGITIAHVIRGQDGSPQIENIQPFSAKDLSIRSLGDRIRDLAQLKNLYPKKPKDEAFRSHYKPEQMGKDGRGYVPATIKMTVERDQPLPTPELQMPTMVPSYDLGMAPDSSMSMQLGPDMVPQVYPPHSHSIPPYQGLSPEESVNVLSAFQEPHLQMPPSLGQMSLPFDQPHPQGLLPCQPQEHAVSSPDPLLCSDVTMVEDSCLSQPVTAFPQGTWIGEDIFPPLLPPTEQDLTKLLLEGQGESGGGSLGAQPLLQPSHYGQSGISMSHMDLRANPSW
Procedure, shortened: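 Luminescence from HiBiT-STAT6 complementing stably expressed LgBiT in HeLa clone 4.14 reports remaining STAT6 protein. Cells (5000/well) exposed to compound for 4-24 h at 37° C; read 0.5 h after Nano-Glo addition. 100% degradation window set with 50 μM terfenadine; percent degradation plotted against concentration.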

Compound	EC50 [1] [nM]	DC50 (STAT6) [nM]	Emax (STAT6; read-out: STAT6 degradation Emax) [%]
CNc1ccn(-c2ccnc3c2cc(CN2CCC(c4c(F)cc(C(=O)N5CCC(CN6CCN(Cc7ccc8c(c7)C7(CC7)C(=O)N8C7CCC(=O)NC7=O)C[C@@H]6C)CC5)cc4F)CC2)n3C)c(=O)c1 (stereo partly drawn) [Example 3u222, 3-(5′-(((S)-4-((1-(3,5-difluoro-4-(1-((1-methyl-4-(4-(methylamino)-2-oxopyridin-1 (2H)-yl)-1H-pyrrolo[2,3-b]pyridin-2-yl)methyl)piperidin-4-yl)benzoyl)piperidin-4-yl)methyl)-3-methylpiperazin-1-yl)methyl)-2′-oxospiro[cyclopropane-1,3′-indolin]-1′-yl)piperidine-2,6-dione]	1.1	1.5	–
CNc1cc(=O)n(-c2ccnc3c2cc([C@H](C)N2CC=C(c4c(F)cc(C(=O)N5CCC(CN6CCN(Cc7ccc8c(c7)n(C)c(=O)n8[C@@H]7CCC(=O)NC7=O)CC6)CC5)cc4F)CC2)n3C)cc1F (single isomer, unassigned) [Example 3u53]	1.1	8.7	–
CNc1ccn(-c2ccnc3c2cc([C@H](C)N2CC=C(c4c(C)cc(C(=O)N5CCC(CN6CCN(c7ccc8c(c7)n(C)c(=O)n8[C@H]7CCC(=O)NC7=O)CC6)CC5)cc4F)CC2)n3C)c(=O)c1 (single isomer, unassigned) [Example 3u293]	0.8	1	–
CNc1cc(=O)n(-c2ccnc3c2cc([C@H](C)N2CC=C(c4c(C)cc(C(=O)N5CCC(CN6CCN(Cc7ccc8c(c7)n(C)c(=O)n8[C@@H]7CCC(=O)NC7=O)C[C@@H]6C)CC5)cc4F)CC2)n3C)cc1F (single isomer, unassigned) [Example 3u92]	1.8	0.4	–
CNc1cc(=O)n(-c2ccnc3c2cc([C@H](C)N2CC=C(c4c(C)cc(C(=O)N(C)c5ccc(N6CCC(Cc7ccc8c(c7)n(C)c(=O)n8C7CCC(=O)NC7=O)CC6)nc5)cc4F)CC2)n3C)cc1F (stereo partly drawn) [Example 3u241, N-(6-(4-((1-(2,6-dioxopiperidin-3-yl)-3-methyl-2-oxo-2,3-dihydro-1H-benzo[d]-imidazol-5-yl)methyl)piperidin-1-yl)pyridin-3-yl)-3-fluoro-4-(1-((S)-1-(4-(5-fluoro-4-(methylamino)-2-oxopyridin-1 (2H)-yl)-1-methyl-1H-pyrrolo[2,3-b]pyridin-2-yl)ethyl)-1,2,3,6-tetrahydropyridin-4-yl)-N,5-dimethylbenzamide]	0.2	0.1	–
CNc1ccn(-c2ccnc3c2cc([C@H](C)N2CC=C(c4c(C)cc(C(=O)N5CCC(CN6CCN(Cc7ccc8c(c7)C7(CC7)C(=O)N8C7CCC(=O)NC7=O)C[C@@H]6C)CC5)cc4F)CC2)n3C)c(=O)n1 (stereo partly drawn) [Example 3u125, 3-(5′-(((S)-4-((1-(3-fluoro-5-methyl-4-(1-((S)-1-(1-methyl-4-(4-(methylamino)-2-oxopyrimidin-1 (2H)-yl)-1H-pyrrolo[2,3-b]pyridin-2-yl)ethyl)-1,2,3,6-tetrahydropyridin-4-yl)benzoyl)piperidin-4-yl)methyl)-3-methylpiperazin-1-yl)methyl)-2′-oxospiro[cyclopropane-1,3′-indolin]-1′-yl)piperidine-2,6-dione]	0.6	0.8	–
CNc1cc(=O)n(-c2ccnc3c2cc(CN2CC=C(c4c(F)cc(C(=O)N5CCC(CN6CCN(Cc7ccc8c(c7)C(C)(C)C(=O)N8[C@H]7CCC(=O)NC7=O)C[C@@H]6C)CC5)cc4F)CC2)n3C)cc1F (single isomer, unassigned) [Example 3u78]	45.9	9.8	–
CNc1ccn(-c2ccnc3c2cc(CN2CC=C(c4c(C)cc(C(=O)N5CCC(CN6CCN(Cc7ccc8c(c7)C(C)(C)C(=O)N8[C@@H]7CCC(=O)NC7=O)C[C@@H]6C)CC5)cc4F)CC2)n3C)c(=O)c1 (single isomer, unassigned) [Example 3u180]	17.3	8.8	–
CNc1cc(=O)n(-c2ccnc3c2cc(CN2CCC(c4c(F)cc(C(=O)N5CCC(CN6CCN(c7ccc8c(c7)C7(CC7)C(=O)N8C7CCC(=O)NC7=O)CC6)CC5)cc4F)CC2)n3C)cc1F (centres unmarked) [Example 3u301, 3-(5′-(4-((1-(3,5-difluoro-4-(1-((4-(5-fluoro-4-(methylamino)-2-oxopyridin-1 (2H)-yl)-1-methyl-1H-pyrrolo[2,3-b]pyridin-2-yl)methyl)piperidin-4-yl)benzoyl)piperidin-4-yl)methyl)-piperazin-1-yl)-2′-oxospiro[cyclopropane-1,3′-indolin]-1′-yl)piperidine-2,6-dione]	90.5	–	20 to 30
Cc1cc(C(=O)N(C)c2ccc(C3CCN(Cc4ccc5c(c4)n(C)c(=O)n5C4CCC(=O)NC4=O)CC3)cc2)cc(F)c1C1=CCN([C@@H](C)c2cc3c(-n4ccc5c(c4=O)CCN5)ccnc3n2C)CC1 (stereo partly drawn) [Example 3u250, N-(4-(1-((1-(2,6-dioxopiperidin-3-yl)-3-methyl-2-oxo-2,3-dihydro-1H-benzo[d]imidazol-5-yl)methyl)piperidin-4-yl)phenyl)-3-fluoro-N,5-dimethyl-4-(1-((S)-1-(1-methyl-4-(4-oxo-1,2,3,4-tetrahydro-5H-pyrrolo[3,2-c]pyridin-5-yl)-1H-pyrrolo[2,3-b]pyridin-2-yl)ethyl)-1,2,3,6-tetrahydropyridin-4-yl)benzamide]	0.4	0.1	–
CNc1cc(=O)n(-c2ccnc3c2cc([C@H](C)N2CCC(c4ccc(C(=O)N5CCC(CN6CCN(Cc7ccc8c(c7)C7(CC7)C(=O)N8C7CCC(=O)NC7=O)C[C@@H]6C)CC5)cc4)CC2)n3C)cc1F (stereo partly drawn) [Example 3u36, 3-(5′-(((S)-4-((1-(4-(1-((S)-1-(4-(5-fluoro-4-(methylamino)-2-oxopyridin-1 (2H)-yl)-1-methyl-1H-pyrrolo[2,3-b]pyridin-2-yl)ethyl)piperidin-4-yl)benzoyl)piperidin-4-yl)methyl)-3-methylpiperazin-1-yl)methyl)-2′-oxospiro[cyclopropane-1,3′-indolin]-1′-yl)piperidine-2,6-dione]	3.3	1.4	–
CNc1nc(=O)n(-c2ccnc3c2cc([C@H](C)N2CC=C(c4c(C)cc(C(=O)N5CCC(CN6CCN(Cc7ccc8c(c7)C7(CC7)C(=O)N8C7CCC(=O)NC7=O)C[C@@H]6C)CC5)cc4F)CC2)n3C)cc1F (stereo partly drawn) [Example 3u102, 3-(5′-(((S)-4-((1-(3-fluoro-4-(1-((S)-1-(4-(5-fluoro-4-(methylamino)-2-oxopyrimidin-1 (2H)-yl)-1-methyl-1H-pyrrolo[2,3-b]pyridin-2-yl)ethyl)-1,2,3,6-tetrahydropyridin-4-yl)-5-methylbenzoyl)piperidin-4-yl)methyl)-3-methylpiperazin-1-yl)methyl)-2′-oxospiro[cyclopropane-1,3′-indolin]-1′-yl)piperidine-2,6-dione]	1.9	3.4	–
CNc1cc(=O)n(-c2ccnc3c2cc([C@H](C)N2CC=C(c4c(C)cc(C(=O)N(C)c5ccc(N6CCN(Cc7ccc8c(c7)n(C)c(=O)n8C7CCC(=O)NC7=O)CC6)nc5)cc4F)CC2)n3C)cc1F (stereo partly drawn) [Example 3u237, N-(6-(4-((1-(2,6-dioxopiperidin-3-yl)-3-methyl-2-oxo-2,3-dihydro-1H-benzo[d]-imidazol-5-yl)methyl)piperazin-1-yl)pyridin-3-yl)-3-fluoro-4-(1-((S)-1-(4-(5-fluoro-4-(methylamino)-2-oxopyridin-1 (2H)-yl)-1-methyl-1H-pyrrolo[2,3-b]pyridin-2-yl)ethyl)-1,2,3,6-tetrahydropyridin-4-yl)-N,5-dimethylbenzamide]	1.7	0.1	–
